Test results published in patent publication US20240100074A1, “Clinical Dosing Schedule of Inositol Phosphate Oligo(Ethylene Glycol) Compounds” (VIFOR (INTERNATIONAL) AG, priority 2021, published 2024).
Entries after “also recorded” stand apart in the source; their conditions may differ.

Experiments:
[1] = test system: Abcc6−/− mice (mouse model of PXE); experiment: Prevention study: histologic (von Kossa) evaluation of vibrissae calcification in muzzle skin; assay type: in vivo; settings: for calcification in the dermal sheath of vibrissae in muzzle skin (von Kossa) / inhibition of ectopic calcification: osmotic pump
Protocol: (§1) Abcc6^−/− knock-out mice (Abcc6^−/−) on C57BL/6J background were generated as described previously (J. F. Klement et al., Mol Cell Biol 2005, 25, 8299). C57BL/6J mice from The Jackson Laboratory (Bar Harbor, ME) were used as wild-type controls (WT). In prevention study, 6-week-old Abcc6^−/− mice were administered with (I a) by periodic subcutaneous injections or continuous administration via subcutaneous ALZET osmotic pump model 2006 (DURECT Corp, Cupertino, CA) for duration of 6 weeks. In reversal study, 12-week-old Abcc6^−/− mice were administered (I a) at 4 mg/kg/day via osmotic pumps for 12 weeks. All mice were maintained on a standard diet and sacrificed at 12 weeks of age, 6 weeks after initiation of treatment (prevention study), or at 24 weeks of age, 12 weeks after initiation of treatment (reversal study). All protocols were approved by the Institutional Animal Care and Use Committee of Thomas Jefferson University.
(§2) Muzzle skin biopsies (left side) from euthanized mice were collected and fixed in 10% phosphate-buffered formalin and embedded in paraffin. Paraffin sections (6 μm) were stained with Hematoxylin and Eosin or von Kossa using standard procedures. To quantify the mineral deposition, muzzle skin biopsies (right side) were harvested and decalcified with 1.0 M HCl for 48 hours at room temperature. Solubilized calcium was then determined by a colorimetric assay (J. Huang et al., J Invest Dermatol 2019, 139, 1254; Q. Li, J. Huang et al., J Invest Dermatol 2019, 139, 360). The values were normalized to tissue weight. Whole blood was collected by retro-orbital bleeding or cardiac puncture. For subcutaneously injected mice, whole blood was collected 30 minutes after injection of (I a). Whole blood was collected at 2 days, 3 weeks, and 6 weeks after treatment initiation in mice receiving (I a). The concentrations of (I a) in heparin plasma were analyzed on an ultra-fast liquid chromatography, as described previously (A. E. Schantl et al., Nat Commun 2020, 11, 721). The data was analyzed using Kruskal-Wallis nonparametric test.
The Abcc6^−/− mice were administered (I a) by subcutaneous implantation of osmotic pumps at doses of 0.16, 0.8, 4, 20, and 100 mg/kg/day. The untreated wild-type and Abcc6^−/− mice served as negative and positive controls of ectopic calcification. Treatment was initiated at 6 weeks of age, a time point at the earliest stages of ectopic calcification in the Abcc6^−/− mice. The extent of ectopic calcification after 6 weeks of treatment was analyzed by two independent assays measuring calcification in the dermal sheath of vibrissae in muzzle skin, an early and reliable biomarker in this mouse model of PXE. One piece of muzzle skin was processed for semi-quantitative histological evaluation. […] The therapeutic effects of (I a) were substantiated by the calcium content in another muzzle skin biopsy measured using a quantitative chemical assay (FIG. 2A).
The inventors next examined whether periodic, bolus subcutaneous injections of (I a) at the same dose of 4 mg/kg/day, would have similar therapeutic benefits. Six-week-old Abcc6^−/− mice were administered (I a) by subcutaneous injections three times per week corresponding to 4 mg/kg/day. […] Thus, subcutaneous injection of (I a) is effective, albeit less than with continuous delivery at the same dose of 4 mg/kg/day on inhibition of ectopic calcification.
Three additional dose levels of (I a) at weekly subcutaneous injections for a duration of 6 weeks were tested to evaluate the inhibitory effects of (I a) (FIG. 1A). […] The semi-quantitative histologic evaluations of (I a) treatment were consistent with the calcium contents in the muzzle skin measured by a chemical assay (FIG. 2A).

[2] = Plasma concentrations of (I a) in treated Abcc6−/− mice; assay type: in vivo, mouse
Protocol: as §2
(I a) was undetectable in plasma of untreated Abcc6^−/− mice.
The Tmax of (I a) in plasma after subcutaneous administration in Sprague Dawley rats was reported to be about 30 minutes after injection, the inventors therefore measured (I a) concentrations in plasma 30 minutes after injection in the Abcc6^−/− mice.

[3] = test system: Abcc6−/− mice (mouse model of PXE); experiment: Prevention study: quantitative chemical calcium assay of muzzle skin biopsies; assay type: in vivo; settings: 6 weeks
Protocol: as §1
(§3) Muzzle skin biopsies (left side) from euthanized mice were collected and fixed in 10% phosphate-buffered formalin and embedded in paraffin. […] To quantify the mineral deposition, muzzle skin biopsies (right side) were harvested and decalcified with 1.0 M HCl for 48 hours at room temperature. Solubilized calcium was then determined by a colorimetric assay (J. Huang et al., J Invest Dermatol 2019, 139, 1254; Q. Li, J. Huang et al., J Invest Dermatol 2019, 139, 360). […] The concentrations of (I a) in heparin plasma were analyzed on an ultra-fast liquid chromatography, as described previously (A. E. Schantl et al., Nat Commun 2020, 11, 721). The data was analyzed using Kruskal-Wallis nonparametric test.
The Abcc6^−/− mice were administered (I a) by subcutaneous implantation of osmotic pumps at doses of 0.16, 0.8, 4, 20, and 100 mg/kg/day. […] The extent of ectopic calcification after 6 weeks of treatment was analyzed by two independent assays measuring calcification in the dermal sheath of vibrissae in muzzle skin, an early and reliable biomarker in this mouse model of PXE. One piece of muzzle skin was processed for semi-quantitative histological evaluation. […]

[4] = Profile of (I a) compared to pyrophosphate and bisphosphonates
[5] = test system: Abcc6−/− mice (mouse model of PXE); experiment: Treatment (reversal) study: histopathology and calcium assay of muzzle skin in old mice; assay type: in vivo; settings: 12-week-old mice, osmotic pump 4 mg/kg/day for 12 weeks, analysed at 24 weeks of age
Protocol: as §1, with “All mice were maintained on a standard diet and sacrificed at 12 weeks of age, 6 weeks after initiation of treatment (prevention study), or at 24 weeks of age, 12 weeks after initiation of treatment (reversal study). All protocols were approved by the Institutional Animal Care and Use Committee of Thomas Jefferson University.” left out
as §3, with “test. […]” for “test.”

[6] = subcutaneous administration, Sprague Dawley rats; cited from earlier work
[7] = test system: cardiovascular calcifications; settings: patients on hemodialysis, 1-year treatment; cited from earlier work

COCCOCCOC1C(OP(=O)(O)O)C(OCCOCCOC)C(OP(=O)(O)O)C(OP(=O)(O)O)C1OP(=O)(O)O (centres unmarked) [(I a), bis-oligoethylene myo-inositol tetrakisphosphate]
calcification in the dermal sheath of vibrissae in muzzle skin (von Kossa) ([1]; 0.16 mg/kg/day, 6 weeks): no effects
calcification in the dermal sheath of vibrissae in muzzle skin (von Kossa) ([1]; 0.8 mg/kg/day, 6 weeks): evident but significantly reduced calcification
calcification in the dermal sheath of vibrissae in muzzle skin (von Kossa) ([1]; 4 mg/kg/day (and above), 6 weeks, from 6 weeks of age, 4 mg/kg/day): very little, if any, calcification; also recorded: little, if any, calcification; also recorded: completely prevented ectopic calcification; also recorded: complete response
inhibition of ectopic calcification ([1]; 4 mg/kg/day, 6 weeks): ~100%
inhibition of ectopic calcification ([1]; 100 mg/kg/day, 6 weeks): ~100%
calcification, subcutaneous injections overall ([1]; subcutaneous injections at different doses and frequencies (thrice weekly and once weekly)): decreased calcification; also recorded: prevented calcification
calcification in the muzzle skin (histology) ([1]; subcutaneous injections three times per week corresponding to 4 mg/kg/day, 6 weeks): significantly reduced calcification
ectopic calcification in the muzzle skin (histology) ([1]; weekly subcutaneous injection, 0.8 mg/kg/day, 6 weeks): significantly reduced ectopic calcification
calcification in the muzzle skin (histology) ([1]; weekly subcutaneous injection, 4 mg/kg/day, 6 weeks): significantly reduced calcification
plasma levels over time ([2]; 2 days, 3 weeks and 6 weeks after implantation of the osmotic pump): remained largely constant; also recorded: largely consistent during treatment
plasma levels 30 minutes after subcutaneous injection ([2]; bolus subcutaneous injection versus pump administered groups): much higher than that in the pump administered groups
plasma concentrations versus dose, all groups ([2]; osmotic pump (prior to sacrifice) or 30 minutes after subcutaneous injection): scaled relatively well with the dose administered
plasma concentrations versus dose ([2]; osmotic pump, 0.16 to 100 mg/kg/day): dose-dependent
minimum active dose / minimum effective dose ([3]; continuous osmotic pump administration): 0.8 mg/kg/day
inhibition of ectopic calcification by calcium assay ([3]; osmotic pump, 0.8 mg/kg/day): 59%
inhibition of ectopic calcification by calcium assay ([3]; subcutaneous injections three times per week corresponding to 4 mg/kg/day): 63%
anti-osteoclastic activity [4]: no anti-osteoclastic activity
local tolerability [4]: good
subcutaneous bioavailability [4]: high
degree of ectopic calcification in muzzle skin after treatment [5]: prevented further calcification; also recorded: calcification similar to 12-week-old Abcc6^−/− control mice; also recorded: stabilized existing calcification
degree of ectopic calcification in muzzle skin after treatment ([5]; listed as INS-3001): stabilize existing calcification
Tmax in plasma [6]: about 30 minutes

O=P(O)(O)O[C@H]1[C@H](OP(=O)(O)O)[C@@H](OP(=O)(O)O)[C@H](OP(=O)(O)O)[C@@H](OP(=O)(O)O)[C@H]1OP(=O)(O)O [IP6]
progression of cardiovascular calcifications [7]: stop the progression, albeit without regression
